Experimental data published in patent publication US20250051330A1, “HETEROCYCLIC COMPOUND HAVING ANTI-TUMOR ACTIVITY AND USE THEREOF” (CSPC Zhongqi Pharmaceutical Technology (Shijiazhuang) Co., …, priority 2021, published 2025).
Like-named read-outs stand apart in the source and are kept apart here.

Legend:
NCI-H358 cells = test: 3D cell proliferation inhibition assay (CellTiter-Glo 3D); format: cell-based; conditions: Homo sapiens, read-out: Activity by IC50 (nM), inhibitory activity against NCI-H358 cell proliferation
Description: The cell proliferation inhibition assay was used to determine the abilities of compounds to inhibit the proliferation and growth of SOS1-mediated tumor cells at the in vitro 3D cellular level. The CellTiter-Glo® 3D Cell Viability Assay was employed.
• NCI-H358: KRAS G12C-mutated non-small cell lung cancer (NSCLC); • CellTiter-Glo® 3D Cell Viability Assay, Promega, G9683; • RPMI 1640 medium, Gibco, A10491-01; • FBS, Gibco, 10099141C.
• Day 1: NCI-H358 cells were passaged into a T75 cell culture flask. • Day 3: the medium was removed; the cells were rinsed once with DPBS, and digested at room temperature or at 37° C. using 2 mL of TrypLE™ Express Enzyme until the cells were detached; the resultant was added with 5 mL of fresh medium, and centrifuged at 1000 rpm for 5 min; the supernatant was discarded, and 5 mL of fresh medium was added to resuspend the cells; the cells were counted and then seeded at 40 μL/well in a 3D cell culture plate (Echo Qualified 384-Well Polypropylene Microplate 2.0, Clear, Flat Bottom).
• Day 1: the test compound was dissolved in DMSO to prepare a 10 mM stock solution; after a 1000-fold dilution with DMSO, the test compound solution was subjected to ten 3-fold serial dilutions starting from a concentration of 10 μM; 200 nL of the compound solution was added to the culture plate. • Day 8: CTG 3D reagent was added at 40 μL/well, and the signal was detected using Envision.
The IC50 values of the compounds were fitted using the Graphpad Prism 8 nonlinear regression equation.
[formula] • X: Log of cpd concentration; • Y: Percent inhibition (% inh).

K-Ras^G12D and hSOS1 = target: T1, K-Ras^G12D and hSOS1 (Homo sapiens, UniProt Q07889); test: K-Ras G12D and hSOS1 binding assay (HTRF); conditions: inhibition of binding of K-Ras G12D to hSOS1, HTRF; read-out: Activity by IC50 (nM), SOS1 inhibitory activity
T1 construct: variant: G12D
T1 sequence (Q07889 whole entry, looked up, stated change not applied): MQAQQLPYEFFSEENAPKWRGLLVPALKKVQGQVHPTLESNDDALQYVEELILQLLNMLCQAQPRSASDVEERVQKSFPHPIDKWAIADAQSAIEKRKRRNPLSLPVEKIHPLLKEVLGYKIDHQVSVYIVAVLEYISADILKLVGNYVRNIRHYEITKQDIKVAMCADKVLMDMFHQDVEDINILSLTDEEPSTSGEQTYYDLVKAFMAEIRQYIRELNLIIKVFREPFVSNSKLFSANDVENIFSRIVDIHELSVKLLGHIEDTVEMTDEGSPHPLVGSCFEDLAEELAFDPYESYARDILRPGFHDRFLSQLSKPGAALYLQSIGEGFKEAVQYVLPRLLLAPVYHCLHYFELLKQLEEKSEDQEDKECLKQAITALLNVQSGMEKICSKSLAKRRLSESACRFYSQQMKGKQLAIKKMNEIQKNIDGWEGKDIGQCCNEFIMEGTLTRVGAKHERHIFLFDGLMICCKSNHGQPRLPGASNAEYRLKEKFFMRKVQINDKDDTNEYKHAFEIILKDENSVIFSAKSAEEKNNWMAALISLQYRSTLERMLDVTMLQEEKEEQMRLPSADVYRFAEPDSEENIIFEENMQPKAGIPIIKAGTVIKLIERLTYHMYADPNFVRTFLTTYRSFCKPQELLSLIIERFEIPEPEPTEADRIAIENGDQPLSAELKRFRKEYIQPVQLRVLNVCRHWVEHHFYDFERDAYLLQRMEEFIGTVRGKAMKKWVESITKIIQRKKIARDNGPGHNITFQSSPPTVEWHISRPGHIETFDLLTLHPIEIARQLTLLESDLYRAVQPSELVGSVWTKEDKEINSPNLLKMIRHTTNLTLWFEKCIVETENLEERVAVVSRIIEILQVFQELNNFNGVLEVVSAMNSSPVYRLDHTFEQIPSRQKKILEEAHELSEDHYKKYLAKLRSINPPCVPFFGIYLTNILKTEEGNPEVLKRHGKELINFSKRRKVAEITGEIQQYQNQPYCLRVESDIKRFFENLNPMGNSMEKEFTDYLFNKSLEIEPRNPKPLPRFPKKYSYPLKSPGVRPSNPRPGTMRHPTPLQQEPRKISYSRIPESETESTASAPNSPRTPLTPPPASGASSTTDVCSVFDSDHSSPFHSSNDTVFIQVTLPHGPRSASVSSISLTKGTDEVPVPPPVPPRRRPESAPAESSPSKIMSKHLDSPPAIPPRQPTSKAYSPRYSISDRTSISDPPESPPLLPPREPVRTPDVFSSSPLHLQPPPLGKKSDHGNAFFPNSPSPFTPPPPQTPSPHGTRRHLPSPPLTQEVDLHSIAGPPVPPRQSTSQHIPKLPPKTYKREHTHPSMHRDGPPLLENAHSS
Experimental: 1. K-Ras^G12D and hSOS1 Binding Assay
This assay could be used to examine the potency of the compounds to inhibit the protein-protein interaction between SOS1 and KRAS G12D. The binding of anti-GSK-Europium (FRET donor)-conjugated GST-KRas^G12D to anti-6His-XL665-conjugated His-tagged hSOS1 ([…]) was detected by homogeneous time-resolved fluorescence (HTRF), and the inhibitory effects of the compounds on the binding of K-Ras^G12D to hSOS1 were determined.
• Buffer (5 mM HEPES pH 7.4, 150 mM NaCl, 10 mM EDTA, 1 mM DTT, 0.05% BAS pH 7.0, 0.0025% 1gepal, and 100 mM KF); • GST-tagged hK-RasG12D (produced in-house); • His-tagged hSOS1 (produced in-house);
• 10 nM (final concentration) GST-hK-RasG12D and 2 nM (final concentration) anti-GSK-Europium in assay buffer were mixed, and set aside at room temperature.
• 20 nM (final concentration) His-tagged hSOS1 and 10 nM (final concentration) anti-6His-XL665 in assay buffer were mixed, and set aside at room temperature.
The test compound was dissolved in DMSO at a concentration of 100 times the assay concentration. 50 nL of the solution of compound was pipetted by Hummingbird liquid handler or Echo acoustic system to a black microassay plate.
All the experimental steps were conducted at 20° C. In the experiment, 2.5 μL of the liquid mixture of Ras was added to all wells of the assay plate using a Multidrop dispenser. After pre-incubation for 2 min, 2.5 μL of the liquid mixture of SOS was added to all the test wells other than the marginal wells, and 2.5 μL of the […], as a control, was added to the marginal wells. After incubation for 60 min, the assay plate passed through the HTRF module of Pheraster (excitation light: 337 nm, emission light 1: 620 nm, emission light 2: 665 nm).
The IC50 values were calculated and analyzed using a four-parameter logistic regression model.

[1] = 192 h, NCI-H358 (KRAS G12C-mutated NSCLC), 3D culture, CTG 3D read on Day 8

SMILES	IC50 (NCI-H358 cells; [1]) [nM]	IC50 (K-Ras^G12D and hSOS1) [nM]	IC50 (NCI-H358 cells; NCI-H358, 192 h) [nM]
Cc1nc(N[C@H](C)c2cccc3c2OCC3(F)F)c2c(n1)N1CCN=C1C(c1ccc(=O)n(C)c1)=C2 [Example 120]	100 to 500	–	–
[2H]C([2H])([2H])n1ccc(C2=Cc3c(N[C@H](C)c4cccc(C(F)(F)F)c4)nc(C)nc3N3CCN=C23)cc1=O [Example 109]	50 to 100	10 to 50	–
Cc1nc(N[C@H](C)c2cccc(C(F)F)c2F)c2cc(-c3ccn(C)c(=O)c3)n3cnnc3c2n1 [Example 9]	–	10 to 50	–
CCn1cc(C2=Cc3c(N[C@H](C)c4cccc(C(F)(F)F)c4)nc(C)nc3N3CCN=C23)ccc1=O [Example 98]	100 to 500	< 10	–
Cc1nc(N[C@H](C)c2cccc(C(F)(F)F)c2F)c2cc(-c3ccn(C)c(=O)c3)n3cnnc3c2n1 [Example 10]	–	10 to 50	–
Cc1nc(N[C@H](C)c2cccc(C(F)(F)CO)c2)c2c(n1)N1CCN=C1C(c1ccn(C)c(=O)c1)=C2 [Example 118]	100 to 500	< 10	–
Cc1nc(N[C@H](C)c2cccc(C(F)F)c2F)c2c(n1)N1CCN=C1C(C1=CCN(S(C)(=O)=O)CC1)=C2 [Example 122]	50 to 100	< 10	–
Cc1nc(N[C@H](C)c2cccc(C(F)(F)F)c2)c2c(n1)N1CCN=C1C(c1cccnc1)=C2 [Example 94]	100 to 500	–	–
Cc1nc(N[C@H](C)c2cccc(C(F)(F)F)c2)c2c(n1)N1CCN=C1C(c1ccc(=O)n(C)c1)=C2 [Example 65]	100 to 500	10 to 50	–
Cc1nc(N[C@H](C)c2cccc(C(F)F)c2F)c2c(n1)N1CCN=C1C(c1ccc(=O)[nH]c1)=C2 [Example 12]	100 to 500	< 10	–
Cc1nc(N[C@H](C)c2cccc(C(F)(F)F)c2)c2c(n1)N1CCN=C1C(c1ccc(=O)n(CCO)c1)=C2 [Example 97]	100 to 500	< 10	–
Cc1nc(N[C@H](C)c2cccc(C(F)(F)F)c2)c2c(n1)N1CCN=C1C(c1cccn(C)c1=O)=C2 [Example 99]	100 to 500	10 to 50	–
Cc1nc(N[C@H](C)c2cccc(C(F)(F)CO)c2)c2c(n1)N1CCN=C1C(c1ccc(=O)n(C)c1)=C2 [Example 71]	100 to 500	< 10	–
Cc1nc(N[C@H](C)c2cccc3c2OCC3(F)F)c2c(n1)N1CCN=C1C(c1ccn(C)c(=O)c1)=C2 [Example 121]	100 to 500	–	–
COCCn1cc(C2=Cc3c(N[C@H](C)c4cccc(C(F)(F)F)c4)nc(C)nc3N3CCN=C23)ccc1=O [Example 100]	100 to 500	–	–
Cc1nc(N[C@H](C)c2cccc(C(F)(F)F)c2)c2c(n1)N1CCN=C1C(c1cccc(=O)n1C)=C2 [Example 102]	100 to 500	–	–
Cc1nc(N[C@H](C)c2cccc(C(F)(F)F)c2)c2c(n1)N1CCN=C1C(c1cc(C)c(=O)n(C)c1)=C2 [Example 106]	100 to 500	–	–
CC(=O)N1CC=C(C2=Cc3c(N[C@H](C)c4cccc(C(F)F)c4F)nc(C)nc3N3CCN=C23)CC1 [Example 31]	< 50	10 to 50	–
CC(=O)N1CC=C(c2cc3c(N[C@H](C)c4cccc(C(F)(F)F)c4)nc(C)nc3n3cnnc23)CC1 [Example 2]	100 to 500	10 to 50	–

SMILES	IC50 (NCI-H358 cells; [1]) [nM]	IC50 (K-Ras^G12D and hSOS1) [nM]	IC50 (NCI-H358 cells; NCI-H358, 192 h) [nM]
Cc1nc(N[C@H](C)c2cc(N)cc(C(F)(F)F)c2)c2c(n1)N1CCN=C1C(c1ccn(C)c(=O)c1)=C2 [Example 6]	–	–	< 50
Cc1nc(N[C@H](C)c2cccc(C(F)(F)C(C)(C)O)c2F)c2c(n1)N1CCN=C1C(c1ccc(=O)n(C)c1)=C2 [Example 119]	50 to 100	–	–
C[C@@H](Nc1nc(C2CC2)nc2c1C=C(c1ccn(C)c(=O)c1)C1=NCCN12)c1cccc(C(F)(F)F)c1 [Example 110]	100 to 500	–	–
Cc1nc(N[C@H](C)c2cccc(C(F)(F)F)c2)c2c(n1)N1CCN=C1C(c1ccn(CF)c(=O)c1)=C2 [Example 113]	100 to 500	–	–
Cc1nc(N[C@H](C)c2cccc(C(F)F)c2F)c2c(n1)N1CCN=C1C(C1(O)CCN(C(=O)C3(F)CC3)CC1)=C2 [Example 125]	50 to 100	–	–
Cc1nc(N[C@H](C)c2cccc(C(F)(F)F)c2)c2cc(N3CCN(C)CC3)c3nncn3c2n1 [Example 3]	100 to 500	10 to 50	–
Cc1nc(N[C@H](C)c2cccc(C(F)F)c2F)c2c(n1)N1CCN=C1C(C1=CCN(C(=O)CC#N)CC1)=C2 [Example 123]	50 to 100	< 10	–
Cc1nc(N[C@H](C)c2cccc(C(F)(F)F)c2)c2c(n1)N1CCN=C1C(c1cncc(C#N)c1)=C2 [Example 95]	100 to 500	–	–
Cc1nc(N[C@H](C)c2cccc(C(F)F)c2F)c2c(n1)N1CCN=C1C(C1=CCN(C(=O)C3(F)CC3)CC1)=C2 [Example 124]	50 to 100	< 10	–
Cc1nc(N[C@H](C)c2cc(C(F)(F)F)ccn2)c2c(n1)N1CCN=C1C(c1ccn(C)c(=O)c1)=C2 [Example 117]	100 to 500	–	–
Cc1nc(N[C@H](C)c2cccc(C(F)F)c2F)c2c(n1)N1CCN=C1C(c1ccn(C)c(=O)c1)=C2 [Example 7]	–	–	< 50
Cc1nc(N[C@H](C)c2cccc(C(F)(F)F)c2)c2c(n1)N1CCN=C1C(c1cn(C)c(=O)n(C)c1=O)=C2 [Example 104]	100 to 500	–	–
Cc1nc(N[C@H](C)c2cccc(C(F)(F)F)c2)c2cc(N3CCOCC3)c3nncn3c2n1 [Example 4]	100 to 500	10 to 50	–
Cc1nc(N[C@H](C)c2cccc(C(F)(F)F)c2)c2c(n1)N1CCN=C1C(c1ccn(C3COC3)c(=O)c1)=C2 [Example 108]	50 to 100	–	–
Cc1nc(N[C@H](C)c2cccc(C(F)(F)F)c2)c2c(n1)N1CCN=C1C(c1cnc(=O)n(C)c1)=C2 [Example 103]	100 to 500	–	–
Cc1nc(N[C@H](C)c2cccc(C(F)(F)F)c2)c2c(n1)N1CCN=C1C(c1ccc(=O)n(CC(F)F)c1)=C2 [Example 101]	100 to 500	–	–
Cc1nc(N[C@H](C)c2cccc(C(F)(F)F)c2)c2c(n1)N1CCN=C1C(c1ccn(CCO)c(=O)c1)=C2 [Example 107]	100 to 500	–	–
C[C@@H](Nc1nc(C2CC2)nc2c1C=C(c1ccc(=O)n(C)c1)C1=NCCN12)c1cccc(C(F)(F)F)c1 [Example 111]	100 to 500	–	–
Cc1nc(N[C@H](C)c2cccc(C(F)(F)F)c2)c2c(n1)N1CCN=C1C(c1ccc(=O)n(C(C)C)c1)=C2 [Example 105]	100 to 500	–	–
